From US20260191825A1, “CONTRACEPTIVE COMPOUNDS AND DOSING FOR THE SAME” (YourChoice Therapeutics, Inc., priority 2024, published 2026)
Entries after “also recorded” stand apart in the source; their conditions may differ. Like-named read-outs stand apart in the source and are kept apart here.

Tests used:
respiratory system = assay: Rat respiratory safety pharmacology study; format: in vivo; conditions: male Sprague Dawley rats, single oral doses of 3, 10 or 30 mg/kg
[1] = test system: central nervous system (CNS); assay: Rat FOB / CNS safety pharmacology study; format: in vivo; conditions: male Sprague Dawley rats, single oral doses of 3, 10 or 30 mg/kg
[2] = test system: bacterial reverse mutation (Ames); assay: In vitro bacterial reverse mutation (Ames) test; format: cell-based; conditions: in vitro bacterial assay, highest doses tested
[3] = Phase 1a single ascending oral dose study, PK; conditions: male, human, in vivo, fasted, geometric mean; for AUC(0-t): po
Protocol: Cohort 1 first received 10 mg, and after a 5-week washout period received 30 mg.

male Cynomolgus macaques = assay: NHP repeat dose non-GLP efficacy study (sperm counts, MABEL); format: in vivo, cynomolgus macaque
Protocol: Animals and husbandry. Six (6) sexually mature, non-naïve male Cynomolgus macaques (8-15 years, 6-15 kg) were used. The animals were individually housed in a humidity- and temperature-controlled facility under a 12 h light/12 h dark diurnal cycle with two daily meals and water ad libitum. The animals were provided with cage toys and daily fresh fruits for environmental enrichment. The animals were acclimated for 2 weeks and observed twice daily to assess overall health and behavior. The animal use protocol was approved by WuXi App Tec's IACUC per the Association for Assessment and Accreditation of Laboratory Animal Care (AAALAC) guideline. The conduct of the study followed the Guidance for the Care and Use of Laboratory Animals (NRC 2011, 8th Edition), with a USDA Category C for the pain and distress level. The humane endpoints included: significant body weight drop of 20% within 7 days, severe adverse effort associated with the administration of the test article, pain and distress caused by any of the in-life procedures, and injury sustained during any time of the experiment that could impact the well-being of the animal (all determined by attending veterinarian). All animals were non-naïve and only animals that had normal hematology and serum chemistry parameters, and normal baseline sperm counts were included in the studies. After the end of the study, all animals were returned to the colony. Confounders were not controlled.
Dosing regimens. […] The formulation (Compound A in saline) was prepared freshly each day of dosing. […] Repeat dose administration: Three (3) Cohort 1 animals were dosed at 0.5 mg/kg/day (Day 1-46) followed by 1.5 mg/kg/day (Day 47-51), 2.5 mg/kg/day (Day 52-101) and 5 mg/kg/day (Day 102-108). Three (3) Cohort 2 animals were dosed at 5 mg/kg/day (Day 1-30) followed by 7.5 mg/kg/day (Day 31-37). No control animals were used in the single and repeat dose studies. Since bioavailability was assessed at time point zero in the PK study and sperm parameters were assessed at pre-dose in the efficacy studies, each animal served as its own control.
Semen collection and sperm count/concentration assessment. Semen samples were obtained once per week or once every other week via electroejaculation during the entire repeat dose study periods from all 3 animals per Cohort to assess sperm concentration and count. Samples were left at room temperature for 30 min to allow for liquefication. Liquefied semen was diluted with 3% NaCl solution for manual sperm count assessment using a hemocytometer. All samples were analyzed in triplicates. Sperm concentration per ejaculate was calculated with the following formula: Sperm concentration=Sperm count×104×Dilution factor. No data point was excluded from the analysis.
Testicular biopsy collection and histology. Testicular biopsies (2 per animal; one from the right and one from the left testicle) were taken 24 h after administering the last dose and on the last day of the recovery period from all 3 animals per Cohort to assess morphological changes. Preoperative care of animals consisted of food restriction and general examination. All surgical procedures were conducted using aseptic techniques and comprehensive physiologic monitoring. The animals were anesthetized with Zoletil 50 (5 mg/kg) by intramuscular (i.m.) injection. The scrotum was disinfected with iodine and 75% alcohol, and lidocaine (1%) was administered intradermally at the biopsy needle insertion site. Core biopsies (one per testis) were collected with a 16 G TSK starcut biopsy needle. Immediately after biopsy collection, animals received Meloxicam (0.2 mg/kg) and Ketorolac (10 mg) for pain relief, and Ceftriaxone sodium (0.5 g) as […] (all via i.m. injection). Meloxicam was given once daily for 3 consecutive days, Ketorolac twice daily for 2 days, and Ceftriaxone sodium once daily for 4 days post-collection. […]

CYP2C9 = CYP2C9 (Homo sapiens, UniProt P11712); assay: In vitro CYP inhibition (direct and time-dependent), CYP2C9; format: in vitro ADME
Source text: (§1) However, the likelihood of drug interactions is low since healthy participants who meet eligibility criteria will be enrolled in this Phase 1b/2a clinical trial. An allowance for select concomitant medications may be considered for select participants at the discretion of the investigator and/or sponsor if drug profiles are not anticipated to interact with Compound A. Such medications may include, but will not be limited to paracetamol or ibuprofen as assessed by both the PI and the Sponsor. […] Additional precautions to avoid grapefruit, pomegranates, star fruit, or Seville oranges for 7 days prior to admission, and juices and products containing these fruits for the duration of the study will be taken.

CYP2C19 = CYP2C19 (Homo sapiens, UniProt P33261); assay: In vitro CYP inhibition (direct and time-dependent), CYP2C19; format: in vitro ADME
Source text: as §1

rat = assay: Rat repeat daily dosing at non-tolerated doses; format: in vivo
Protocol: These doses convert to respective Human Equivalent Doses (HEDs) of ≥1,612.8 mg and ≥444.8 mg fixed dose based on 80 kg body weight. […] Safety laboratory analyses include serum chemistry, hematology, coagulation, and lipid panel.

male Sprague Dawley rats = assay: Rat 28-day repeat-dose GLP toxicity study; design: NOAEL increase over the minimum efficacious dose in rats: dose or concentration left out as unconfirmed
[4] = rat, 3, 10 or 30 mg/kg/day for 28 days

Sequence of CYP2C19 (P33261 whole entry): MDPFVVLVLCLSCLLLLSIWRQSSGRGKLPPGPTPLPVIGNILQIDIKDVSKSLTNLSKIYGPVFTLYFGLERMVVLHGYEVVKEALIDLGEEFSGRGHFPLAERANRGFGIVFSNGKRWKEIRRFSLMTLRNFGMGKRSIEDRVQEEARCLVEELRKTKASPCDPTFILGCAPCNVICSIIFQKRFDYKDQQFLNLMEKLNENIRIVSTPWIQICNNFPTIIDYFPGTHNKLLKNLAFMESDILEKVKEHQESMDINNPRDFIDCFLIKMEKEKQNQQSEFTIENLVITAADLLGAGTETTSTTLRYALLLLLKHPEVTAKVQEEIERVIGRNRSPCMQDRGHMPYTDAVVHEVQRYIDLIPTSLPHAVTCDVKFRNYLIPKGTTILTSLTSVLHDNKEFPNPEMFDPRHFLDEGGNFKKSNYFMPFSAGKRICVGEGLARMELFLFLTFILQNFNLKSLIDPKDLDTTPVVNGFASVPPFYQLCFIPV
Sequence of CYP2C9 (P11712 whole entry): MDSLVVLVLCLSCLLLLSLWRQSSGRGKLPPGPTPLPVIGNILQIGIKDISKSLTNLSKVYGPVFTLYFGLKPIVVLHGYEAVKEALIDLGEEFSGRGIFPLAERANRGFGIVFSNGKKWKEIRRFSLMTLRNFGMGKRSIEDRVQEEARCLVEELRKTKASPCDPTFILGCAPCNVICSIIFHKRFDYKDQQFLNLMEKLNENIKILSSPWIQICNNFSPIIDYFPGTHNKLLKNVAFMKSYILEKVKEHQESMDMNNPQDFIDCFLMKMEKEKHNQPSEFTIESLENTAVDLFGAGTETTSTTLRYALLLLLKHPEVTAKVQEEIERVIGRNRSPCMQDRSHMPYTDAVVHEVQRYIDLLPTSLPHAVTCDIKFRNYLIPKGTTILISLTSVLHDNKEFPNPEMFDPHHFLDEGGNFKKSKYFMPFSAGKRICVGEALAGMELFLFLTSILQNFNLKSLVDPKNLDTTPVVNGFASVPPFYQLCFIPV

For `Cc1ccc(C2=CC(C)(C)Oc3ccc(-c4ccc(-c5ccc(C(=O)O)cc5)[nH]4)cc32)cc1` [Compound A], which “Main outcomes: rat respiratory (adverse effects on respiratory system)” value (respiratory system) is on record?
The value was “no adverse effects; also recorded: Clean”.

And the “Main outcomes: rat FOB (adverse effects on CNS)” value [1]?
The value was “no adverse effects; also recorded: Clean”.

What about the “Genotoxicity: Ames” value [2] of the same compound?
Its value is “not genotoxic; also recorded: no genotoxic potential; also recorded: Clean”.

What about the AUC(0-t) ([3]; 10 mg, single oral dose 10 mg, read-out: AUC0-24) of the same compound?
The AUC(0-t) was 2380 ng·h/mL.

And the AUC(0-t) ([3]; 10 mg, single oral dose 10 mg, read-out: AUC0-last)?
The AUC(0-t) was 8180 ng·h/mL.

What about the AUC(0-t) ([3]; 30 mg, single oral dose 30 mg, read-out: AUC0-24) of the same compound?
Its AUC(0-t) is 3520 ng·h/mL.

And the AUC(0-t) ([3]; 30 mg, single oral dose 30 mg, read-out: AUC0-last)?
Its AUC(0-t) is 12400 ng·h/mL.

What about the AUC(0-t) ([3]; 90 mg, single oral dose 90 mg, read-out: AUC0-24) of the same compound?
The AUC(0-t) was 8430 ng·h/mL.

And the AUC(0-t) ([3]; 90 mg, single oral dose 90 mg, read-out: AUC0-last)?
Its AUC(0-t) is 26300 ng·h/mL.

What about the AUC(0-t) ([3]; 180 mg, single oral dose 180 mg, read-out: AUC0-24) of the same compound?
The AUC(0-t) was 27300 ng·h/mL.

And the AUC(0-t) ([3]; 180 mg, single oral dose 180 mg, read-out: AUC0-last)?
The AUC(0-t) was 73400 ng·h/mL.

And the AUC(0-inf) ([3]; single oral dose 10 mg)?
The AUC(0-inf) was 9560 ng·h/mL.

What about the Cmax ([3]; single oral dose 10 mg) of the same compound?
The Cmax was 131 ng/mL.

What about the half-life ([3]; single oral dose 10 mg) of the same compound?
The half-life was 53.5 h.

And the AUC(0-inf) ([3]; single oral dose 30 mg)?
Its AUC(0-inf) is 12900 ng·h/mL.

What about the Cmax ([3]; single oral dose 30 mg) of the same compound?
The Cmax was 200 ng/mL.

And the half-life ([3]; single oral dose 30 mg)?
Its half-life is 61.7 h.

And the AUC(0-inf) ([3]; single oral dose 90 mg)?
Its AUC(0-inf) is 26800 ng·h/mL.

And the Cmax ([3]; single oral dose 90 mg)?
Its Cmax is 472 ng/mL.

What about the half-life ([3]; single oral dose 90 mg) of the same compound?
Its half-life is 71.3 h.

What about the AUC(0-inf) ([3]; single oral dose 180 mg) of the same compound?
The AUC(0-inf) was 75400 ng·h/mL.

What about the Cmax ([3]; single oral dose 180 mg) of the same compound?
Its Cmax is 1750 ng/mL.

And the half-life ([3]; single oral dose 180 mg)?
The half-life was 76.3 h.

And the “HED (based on BSA) of MABEL” value (male Cynomolgus macaques; NHP)?
Its value is 0.8 mg/kg.

What about the “HED for 60 kg BW of MABEL” value (male Cynomolgus macaques; NHP) of the same compound?
The value was 48 mg.

And the “HED for 80 kg BW of MABEL” value (male Cynomolgus macaques; NHP)?
Its value is 64 mg.

What about the MABEL (male Cynomolgus macaques; NHP, 49-day repeat dose non-GLP) of the same compound?
The MABEL was 2.5 mg/kg/day.

What about the “Lowest dose with decreases in sperm counts” value (male Cynomolgus macaques; NHP, repeat dose for 7 weeks) of the same compound?
Its value is 2.5 mg/kg/day.

And the “Reversibility of antispermatogenic effect” value (male Cynomolgus macaques; NHPs)?
Its value is 1.5-3.5 spermatogenic cycles.

And the IC50 (CYP2C9; CYP2C9)?
The IC50 was 14.6 µM.

And the “Time-dependent inhibition (TDI)” value (CYP2C9; CYP2C9, 0.3 to 100 μM)?
Its value is “no TDI potential”.

What about the IC50 (CYP2C19; CYP2C19) of the same compound?
Its IC50 is 85.1 µM.

And the “Time-dependent inhibition (TDI)” value (CYP2C19; CYP2C19, 0.3 to 100 μM)?
Its value is “no TDI potential”.

And the “HED of not tolerated dose, fixed dose based on 80 kg body weight” value (rat)?
The value was ≥ 1,612.8 mg.

And the “Not tolerated repeat daily dose (death and morbidity)” value (rat)?
Its value is ≥ 125 mg/kg/day.

What about the “Systems affected at non-tolerated doses” value (rat) of the same compound?
The value was “hematopoietic, hepatic, adrenal and lymphoid systems were affected”.

What about the “NOAEL increase over the minimum efficacious dose in rats” value (male Sprague Dawley rats; rat NOAEL […] mg/kg/day, based on exposure) of the same compound?
Its value is 40 fold.

What about the Prostate weight (male Sprague Dawley rats; [4]) of the same compound?
The Prostate weight was “unchanged”.

And the “Recovery from testicular effects” value (male Sprague Dawley rats; [4])?
The value was “very slow”.

And the Testosterone levels (male Sprague Dawley rats; rat, 3, 10 or 30 mg/kg/day for 28 days, inferred from prostate weight)?
Its Testosterone levels is “did not change testosterone levels”.
